Data as given in patent US11285226B2, “Aryl ethene derivative and pharmaceutical composition containing same as active ingredient” (priority 2016, dated 2022).

What was measured:
[1] = Weight change of mice during administration; conditions: all groups
[2] = target: CYP1A2 (Homo sapiens (Human), UniProt P05177); test: Cytochrome P450 activity inhibition, CYP1A2; assay type: in vitro ADME; conditions: 10 μM, human liver microsomes
Description: (§1) 1) Cytochrome P450 (CYP450) Activity Inhibition Evaluation

[3] = system: ERRγ mRNA in CAL62 cells; test: Quantitative RT-PCR, ERRγ mRNA; assay type: cell-based
Description: (§2) Total RNA was separated using Trizol (Invitrogen, Carlsbad, Calif.). Total RNA (2 ug) was reverse-transcribed into cDNA with RevertAid First Strand cDNA Synthesis Kit (Thermo Scientific, Pittsburgh, Pa.). Genes were amplified with a ViiA 7 Real-Time PCR System instrument (Applied Biosystems) using the primer of each target gene and YBR Green PCR master mix (Applied Biosystems, Foster City, Calif.), using a cDNA template. The primer sequence of each target gene is as follows: ERRγ (forward, 5′-CAG ACG CCA GTG GGA GCT A-3′; reverse, 5′-TGGCGAGTCAAGTCCGTTCT-3′), NIS (forward, 5′-TCTAACCGATGCTCACCTCTTCTG-3′; reverse, 5′-AGATGATGGCACCTCCTTGAACC-3′), and acidic ribosomal protein 36B4 (forward, 5′-CCA CGC TGC TGA ACA TGC T-3′; reverse, 5′-TCGAACACCTGCTGGATGAC-3′). Each target gene was normalized using a 36B4 gene.

[4] = system: ERRγ protein in CAL62 cells; test: Western blot, ERRγ protein; assay type: cell-based
[5] = system: CAL62 cells; test: Clonogenic assay with 131I; assay type: cell-based; conditions: alone
Description: The cells were plated in a 6-well plate, and allowed to stand for 24 hours. […] The cells were washed with cold bHBSS, and allowed to stand in a normalized culture medium for a time corresponding to six doublings. Finally, the cells were fixed in a 4% paraformaldehyde (PFA) solution and stained with 0.05% crystal violet.

[6] = system: NIS protein in CAL62 cells; test: Western blot, total and membrane-localized NIS protein; assay type: cell-based, human
[7] = system: CAL-62 cells; test: 125I uptake assay in anaplastic thyroid cancer cells; assay type: cell-based
[8] = system: CAL-62/effluc mouse tumor model; test: Bio-distribution study, 125I uptake in CAL-62/effluc tumor; assay type: in vivo
Description: Nude mice (Balb/c nu/nu, female, 6 weeks old) were used, and all animals were normally raised in DMRC center animal laboratory of Kyungbuk National University Hospital in Chilgok. 5×10^6 CAL-62/effluc cells were subcutaneously injected into the left femoral region of the nude mouse to form a tumor. The tumor was extracted, divided into small pieces (20 mg or more), and then intradermally injected into the nude mouse to form a tumor.
After 4 hours of administration, all organs including a parent tumor were extracted, and each organ was weighed. Thereafter, each organ was transferred to a 5 mL test tube, and radioactivity in the organ was measured using a gamma counter.

[9] = system: NIS mRNA in CAL62 cells; test: Quantitative RT-PCR, NIS mRNA; assay type: cell-based
Description: as §2

[10] = target: ERR gamma ligand-binding domain (LBD) (Homo sapiens (Human), UniProt P62508); test: ERRγ binding assay (inverse agonist assay), TR-FRET
Description: 1) ERRγ Binding Assay (Inverse Agonist Assay)
(§3) The arylethene derivative of the present invention was sequentially added to a 384 well plate from a concentration of 10 μM to a final concentration of two-fold dilution. […] After all reagents were added, a reaction was carried out with gentle shaking at 20° C. for 1 hour, and after the reaction, a binding activity was measured by a TR-FRET method.

[11] = target: ERR alpha LBD (Homo sapiens (Human), UniProt P11474); conditions: read-out: Binding Assay, IC50 ERRα
Description: as §3

[12] = target: ER alpha ligand-binding domain (LBD) (Homo sapiens (Human), UniProt P03372); conditions: beta-estradiol 4 nM as agonist; read-out: Binding Assay, IC50 ERα
Description: as §3

[13] = target: CYP2C19 (Homo sapiens (Human), UniProt P33261); test: Cytochrome P450 activity inhibition, CYP2C19; assay type: in vitro ADME; conditions: 10 μM, human liver microsomes
Description: as §1

[14] = assay type: in vitro ADME, dog; conditions: 1 μM, 30 minutes, 37° C.
Description: 2) Microsomal Stability Evaluation
(§4) Four liver microsomes (Human, Dog, Rat, Mouse 0.5 mg/ml) with a 0.1 M phosphate buffer solution (pH 7.4), and the arylethene derivative of the present invention were added to a concentration of 1 μM, culturing was performed at 37° C. for 5 minutes in advance, a NADPH regeneration system solution was added thereto, and culturing was performed at 37° C. for 30 minutes. Thereafter, in order to complete the reaction, an acetonitrile solution containing an internal standard material (chlorpropamide) was added thereto, centrifugation (14,000 rpm, 4° C.) was performed for 5 minutes, and a supernatant was injected into a LC-MS/MS system to analyze the substrate drug, thereby evaluating metabolism stability to the arylethene derivative of the present invention.

[15] = target: CYP2C9 (Homo sapiens (Human), UniProt P11712); test: Cytochrome P450 activity inhibition, CYP2C9; assay type: in vitro ADME; conditions: 10 μM, human liver microsomes
Description: as §1

[16] = assay type: in vitro ADME, rat; conditions: 1 μM, 30 minutes, 37° C.
Description: 2) Microsomal Stability Evaluation
as §4

[17] = assay type: in vitro ADME, human; conditions: 1 μM, 30 minutes, 37° C.
Description: 2) Microsomal Stability Evaluation
as §4

[18] = assay type: in vitro ADME; conditions: PBS pH 7.4, 25° C., 5 hours
Description: 3) Parallel Artificial Membrane Permeability Assay (PAMPA) Evaluation
PAMPA is a method which has been developed for testing cell membrane permeability of a material in a test tube, and has been performed using a lipid tri-layer PVDF membrane available from Corning Gentest (NY, US), the used reagents were all purchased from Sigma (MO, US). First, a test material is diluted in PBS (pH 7.4) to a final concentration of 10 mM, 300 mL of the solution is added to the bottom well of a 96-transwell equipped with a PVDF membrane, and 200 mL of PBS is added to the upper well. Then, a plate is reacted at 25° C. for 5 hours, 20 mL of the solution in each well is transferred to a new container, and 80 mL of acetonitrile containing an internal standard material (4 mM chloropropamide) is added thereto. A concentration of the material in the solution is analyzed using LC-MS/MS (ThermoFisher Scientific, MO, US), and the transmittance of the material is calculated according to the equation reported in the reference document. • Reference document: A novel design of artificial membrane for improving the PAMPA model.

[19] = target: CYP2D6 (Homo sapiens (Human), UniProt P10635); test: Cytochrome P450 activity inhibition, CYP2D6; assay type: in vitro ADME; conditions: 10 μM, human liver microsomes
Description: as §1

[20] = assay type: in vitro ADME, mouse; conditions: 1 μM, 30 minutes, 37° C.
Description: 2) Microsomal Stability Evaluation
as §4

[21] = target: CYP3A4 (Homo sapiens (Human), UniProt P08684); test: Cytochrome P450 activity inhibition, CYP3A4; assay type: in vitro ADME; conditions: 10 μM, human liver microsomes
Description: Thereafter, in order to complete the reaction, an acetonitrile solution containing an internal standard material (Terfenadine) was added thereto, centrifugation (14,000 rpm, 4° C.) was performed for 5 minutes, and a supernatant was injected into a LC-MS/MS system to analyze the metabolites of the substrate drug, thereby evaluating drug metabolism enzyme inhibition by the arylethene derivative of the present invention.

[22] = system: ERRγ; assay type: cell-based
Description: AD293 was cultured in a 24-well plate for 24 hours, using a DMEM High glucose culture medium (Hyclone, USA) to which 0.5% FBS was added at a concentration of 9×10^4/well. The culture medium was replaced with a DMEM High glucose culture medium to which 10% FBS was added, treatment was performed with a mixture of a TransIT-LT1 transfection reagent (Minis, USA) and pCMX-Gal4-ERRγ, pFR-luciferase reporter plasmid, pCMV-β-gal, and culturing was performed for 24 hours. Thereafter, a luciferase activity assay and a β-gal assay were performed, respectively, with a lysate obtained after treatment with the arylethene derivative of the present invention for 24 hours. All results were derived from three or more independent repetitive experiments.

[23] = target: ERRβ (Homo sapiens, UniProt O95718); test: ERRβ binding assay (selectivity test), TR-FRET
Description: as §3

Sequence of CYP1A2 (P05177 whole entry): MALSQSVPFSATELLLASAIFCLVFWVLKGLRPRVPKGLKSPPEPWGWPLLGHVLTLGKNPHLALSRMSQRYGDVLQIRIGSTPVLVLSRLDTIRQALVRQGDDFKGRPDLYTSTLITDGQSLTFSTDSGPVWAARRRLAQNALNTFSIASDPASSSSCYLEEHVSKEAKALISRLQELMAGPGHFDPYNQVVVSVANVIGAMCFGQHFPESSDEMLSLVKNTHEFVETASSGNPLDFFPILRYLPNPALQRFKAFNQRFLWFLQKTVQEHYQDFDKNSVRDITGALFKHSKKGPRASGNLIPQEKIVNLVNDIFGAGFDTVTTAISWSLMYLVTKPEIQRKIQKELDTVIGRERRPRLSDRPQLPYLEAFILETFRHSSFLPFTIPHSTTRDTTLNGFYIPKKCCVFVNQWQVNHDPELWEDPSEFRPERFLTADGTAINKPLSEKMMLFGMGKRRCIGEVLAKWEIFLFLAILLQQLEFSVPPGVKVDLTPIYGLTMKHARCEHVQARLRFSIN
Sequence of CYP2D6 (P10635 whole entry): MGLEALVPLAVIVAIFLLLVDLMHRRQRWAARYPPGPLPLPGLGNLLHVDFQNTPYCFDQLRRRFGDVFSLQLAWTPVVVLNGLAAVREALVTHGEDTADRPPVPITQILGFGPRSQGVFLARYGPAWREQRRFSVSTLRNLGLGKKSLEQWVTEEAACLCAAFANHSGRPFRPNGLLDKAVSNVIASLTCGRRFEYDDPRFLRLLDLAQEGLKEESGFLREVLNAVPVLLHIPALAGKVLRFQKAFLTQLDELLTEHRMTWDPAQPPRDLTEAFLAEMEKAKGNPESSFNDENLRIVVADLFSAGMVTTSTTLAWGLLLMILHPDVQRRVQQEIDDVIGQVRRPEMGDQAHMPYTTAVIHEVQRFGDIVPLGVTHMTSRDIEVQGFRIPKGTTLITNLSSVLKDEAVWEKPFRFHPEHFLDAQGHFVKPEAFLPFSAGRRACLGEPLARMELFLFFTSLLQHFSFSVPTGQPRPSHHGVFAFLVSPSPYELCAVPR
Sequence of CYP2C19 (P33261 whole entry): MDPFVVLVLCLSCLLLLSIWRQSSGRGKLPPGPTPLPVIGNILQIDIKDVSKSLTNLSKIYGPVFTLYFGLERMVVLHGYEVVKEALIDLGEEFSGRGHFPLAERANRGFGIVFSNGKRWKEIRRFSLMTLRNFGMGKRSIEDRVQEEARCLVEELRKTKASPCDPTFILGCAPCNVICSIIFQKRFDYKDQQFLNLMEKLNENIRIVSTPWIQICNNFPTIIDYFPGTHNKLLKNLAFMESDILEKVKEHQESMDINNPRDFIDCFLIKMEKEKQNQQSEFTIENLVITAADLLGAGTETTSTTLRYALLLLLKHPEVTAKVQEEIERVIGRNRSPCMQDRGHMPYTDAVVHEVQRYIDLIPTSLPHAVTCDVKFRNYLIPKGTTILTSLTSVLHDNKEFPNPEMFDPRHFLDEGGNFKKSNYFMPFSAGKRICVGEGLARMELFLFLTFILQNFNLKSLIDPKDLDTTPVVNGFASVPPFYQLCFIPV
Sequence of CYP3A4 (P08684 whole entry): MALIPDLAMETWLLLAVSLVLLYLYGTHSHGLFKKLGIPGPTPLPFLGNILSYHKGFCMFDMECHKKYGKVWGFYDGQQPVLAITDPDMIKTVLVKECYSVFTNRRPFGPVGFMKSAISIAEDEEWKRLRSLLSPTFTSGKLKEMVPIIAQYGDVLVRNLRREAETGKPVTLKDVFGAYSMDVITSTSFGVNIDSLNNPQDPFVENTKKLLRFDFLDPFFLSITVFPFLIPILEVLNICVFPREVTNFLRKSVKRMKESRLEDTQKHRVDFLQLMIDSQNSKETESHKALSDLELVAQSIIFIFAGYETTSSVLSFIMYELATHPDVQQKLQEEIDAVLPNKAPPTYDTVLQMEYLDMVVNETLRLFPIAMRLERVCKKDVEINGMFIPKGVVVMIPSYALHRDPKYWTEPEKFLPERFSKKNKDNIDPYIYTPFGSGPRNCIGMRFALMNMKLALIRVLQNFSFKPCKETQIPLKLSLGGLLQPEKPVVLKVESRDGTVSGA
Sequence of ER alpha ligand-binding domain (LBD) (P03372 whole entry, looked up, the tested form may be a part): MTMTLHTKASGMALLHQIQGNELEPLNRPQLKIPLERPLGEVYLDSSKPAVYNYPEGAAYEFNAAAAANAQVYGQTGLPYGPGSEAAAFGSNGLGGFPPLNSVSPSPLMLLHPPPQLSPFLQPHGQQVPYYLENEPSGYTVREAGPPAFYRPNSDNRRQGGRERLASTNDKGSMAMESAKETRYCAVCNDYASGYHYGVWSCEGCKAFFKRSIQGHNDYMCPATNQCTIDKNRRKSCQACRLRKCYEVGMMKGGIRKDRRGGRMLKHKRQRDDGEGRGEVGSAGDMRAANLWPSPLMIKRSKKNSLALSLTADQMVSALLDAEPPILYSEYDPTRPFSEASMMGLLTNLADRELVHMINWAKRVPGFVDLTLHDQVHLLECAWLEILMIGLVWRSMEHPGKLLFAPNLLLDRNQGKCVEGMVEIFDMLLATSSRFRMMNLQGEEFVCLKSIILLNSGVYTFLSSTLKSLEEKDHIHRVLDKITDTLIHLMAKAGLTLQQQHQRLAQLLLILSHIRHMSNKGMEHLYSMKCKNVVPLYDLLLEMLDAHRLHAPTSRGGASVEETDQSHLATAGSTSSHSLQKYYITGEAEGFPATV
Sequence of ERR alpha LBD (P11474 193-421, species assumed): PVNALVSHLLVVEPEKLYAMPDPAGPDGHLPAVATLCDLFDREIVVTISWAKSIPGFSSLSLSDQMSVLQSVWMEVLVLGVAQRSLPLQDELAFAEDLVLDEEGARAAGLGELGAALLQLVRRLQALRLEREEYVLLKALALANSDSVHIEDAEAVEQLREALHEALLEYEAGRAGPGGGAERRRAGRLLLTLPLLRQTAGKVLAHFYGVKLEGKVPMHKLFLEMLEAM
Sequence of CYP2C9 (P11712 whole entry): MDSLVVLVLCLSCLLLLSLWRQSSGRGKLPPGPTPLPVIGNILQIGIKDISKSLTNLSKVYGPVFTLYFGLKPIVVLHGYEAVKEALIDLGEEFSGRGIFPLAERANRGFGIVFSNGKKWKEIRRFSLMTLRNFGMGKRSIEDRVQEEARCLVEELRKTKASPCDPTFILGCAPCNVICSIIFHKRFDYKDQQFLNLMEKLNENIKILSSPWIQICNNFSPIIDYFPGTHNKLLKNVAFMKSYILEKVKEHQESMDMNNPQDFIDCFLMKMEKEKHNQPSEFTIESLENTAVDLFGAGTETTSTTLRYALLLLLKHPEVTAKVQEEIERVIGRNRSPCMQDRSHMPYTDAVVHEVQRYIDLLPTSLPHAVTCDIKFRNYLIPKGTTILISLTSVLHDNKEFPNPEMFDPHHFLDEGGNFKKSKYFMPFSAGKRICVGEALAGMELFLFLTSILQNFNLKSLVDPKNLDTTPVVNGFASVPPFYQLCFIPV
Sequence of ERR gamma ligand-binding domain (LBD) (P62508 233-457): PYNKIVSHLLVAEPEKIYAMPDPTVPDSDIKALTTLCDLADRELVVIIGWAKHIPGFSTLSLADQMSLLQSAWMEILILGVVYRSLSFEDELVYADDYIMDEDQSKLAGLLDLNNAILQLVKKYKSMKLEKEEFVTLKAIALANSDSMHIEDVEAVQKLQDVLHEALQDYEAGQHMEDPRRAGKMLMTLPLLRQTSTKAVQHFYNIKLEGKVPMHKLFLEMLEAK

Structure (SMILES)	CYP inhibition (% of control) 1A2 [2]	IC50 [11] [nM]	IC50 [12] [nM]	CYP inhibition (% of control) 2C19 [13]	MS (Microsomal Stability) (%) dog [14] [%]	CYP inhibition (% of control) 2C9 [15]	MS (Microsomal Stability) (%) rat [16] [%]	MS (Microsomal Stability) (%) human [17] [%]	CYP inhibition (% of control) 2D6 [19]	MS (Microsomal Stability) (%) mouse [20] [%]	CYP inhibition (% of control) 3A4 [21]	other results
CC(C)N1CCN(c2ccc(C(=C(CCCO)c3ccccc3)c3ccc(O)cc3)cc2)CC1 [Compound 18a]	88 % of control	–	–	–	–	–	–	–	–	–	–	weight change in the mice [1]: abrupt weight change in the mice was not shown; ERRγ mRNA expression, decrease vs vehicle treated group [3]: about 16 times; ERRγ protein expression, decrease vs vehicle treated group [4]: about 2.8 times; cytotoxic effect in clone formation assay [5]: minimal cytotoxic effect; increase in membrane fully glycosylated NIS protein [6]: 8.1 times; increase in membrane partially glycosylated NIS protein [6]: 6.4 times; total NIS protein expression, change vs vehicle treated group ([6]; text says significantly increased, then decreased): about 1.9 times; concentration of maximum increase of iodine uptake ([7]; CAL62 cells): 12 µM; radioactive iodine uptake in CAL62 cells ([7]; for each concentration and each time): significant increase; radioactive uptake in CAL62 tumor, increase vs vehicle group ([8]; 100 mpk orally daily for 6 days): 4.4 times; radioactive uptake in CAL62 tumor, increase vs vehicle group ([8]; 200 mpk orally daily for 6 days): 16.2 times; NIS mRNA expression, increase vs vehicle-treated group [9]: about 2 times
OCCC/C(=C(\c1ccc(O)cc1)c1ccc(C2CCN(C3CCCCC3)CC2)cc1)c1ccccc1 [Compound 22p]	88.1 % of control	9700	2120	61.5 % of control	77.7	81.8 % of control	75.3	72.3	79.6 % of control	40.4	90.6 % of control	IC50 [10]: 99 nM; Permeability Pampa [18]: 0.2 10^−6 cm/s
OCCC/C(=C(\c1ccc(O)cc1)c1ccc(C2CCNCC2)cc1)c1ccccc1 [Compound 20j]	93.6 % of control	> 10000	992	62 % of control	68.3	77.1 % of control	84.5	76.8	89.3 % of control	25.3	66.2 % of control	Functional Assay at 10 μM (% of control), Cpds ([22]; 10 μM, AD293, 24 hours): 1.41 % of control; Functional Assay, Cpds/Ref 5182 ([22]; activity relative to reference compound GSK5182): 1.38; IC50 [23]: 4930 nM
